Data published in patent US20040235855A1, “Phospholipase C inhibitors for use in treating inflammatory disorders” (priority 2003, published 2004).

What follows are molecules tested against T1, human PLC-β2 (Homo sapiens, UniProt Q00722) (assay: PLC assay using FlashPlates (96-well, immobilized [3H]PIP2 substrate)). Settings: purified recombinant human PLC-β2 or cytosolic human PLC-β2; hydrolysis of [3H]PIP2.
T1 construct: made in house; host or cells: Sf9 cells (Spodoptera frugiperda), recombinant baculovirus
T1 sequence (Q00722 whole entry): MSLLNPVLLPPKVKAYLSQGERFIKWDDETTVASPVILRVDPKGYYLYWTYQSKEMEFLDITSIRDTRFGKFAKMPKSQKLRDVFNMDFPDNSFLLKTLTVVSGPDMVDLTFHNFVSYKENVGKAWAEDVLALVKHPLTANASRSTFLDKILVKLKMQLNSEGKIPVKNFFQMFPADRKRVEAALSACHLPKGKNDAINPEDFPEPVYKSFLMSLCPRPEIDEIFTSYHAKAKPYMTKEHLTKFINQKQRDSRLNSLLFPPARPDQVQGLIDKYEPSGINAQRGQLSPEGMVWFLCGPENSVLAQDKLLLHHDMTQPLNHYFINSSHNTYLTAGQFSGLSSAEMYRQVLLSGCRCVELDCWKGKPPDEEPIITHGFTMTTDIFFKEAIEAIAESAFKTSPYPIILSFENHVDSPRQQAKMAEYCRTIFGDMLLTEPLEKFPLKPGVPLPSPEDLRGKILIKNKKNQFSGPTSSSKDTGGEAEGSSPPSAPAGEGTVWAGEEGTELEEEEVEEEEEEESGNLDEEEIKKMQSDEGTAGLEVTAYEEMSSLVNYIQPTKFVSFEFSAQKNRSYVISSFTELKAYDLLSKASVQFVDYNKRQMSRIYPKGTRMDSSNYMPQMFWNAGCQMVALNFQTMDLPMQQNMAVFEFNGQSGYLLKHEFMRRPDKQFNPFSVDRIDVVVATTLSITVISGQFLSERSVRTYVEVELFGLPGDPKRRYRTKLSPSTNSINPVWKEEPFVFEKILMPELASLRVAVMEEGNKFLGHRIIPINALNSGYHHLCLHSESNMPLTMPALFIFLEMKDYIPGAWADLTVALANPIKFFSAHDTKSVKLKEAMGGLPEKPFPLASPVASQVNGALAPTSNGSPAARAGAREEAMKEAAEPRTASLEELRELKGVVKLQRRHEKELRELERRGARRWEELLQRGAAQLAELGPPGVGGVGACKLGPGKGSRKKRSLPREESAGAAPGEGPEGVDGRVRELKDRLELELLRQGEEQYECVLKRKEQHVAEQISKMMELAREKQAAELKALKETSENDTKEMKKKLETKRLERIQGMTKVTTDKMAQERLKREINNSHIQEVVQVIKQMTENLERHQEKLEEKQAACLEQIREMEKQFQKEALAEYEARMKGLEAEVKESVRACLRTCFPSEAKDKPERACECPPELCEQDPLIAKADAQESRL
Type: biochemical
Text: The hydrolysis of phosphatidylinositol-4,5-bisphosphate (PIP2) by a specific phospholipase C-β2 (PLC-β2) produces two intracellular messengers, diacylglycerol (DAG) and inositol 1,4,5-trisphosphate (IP3), which mediate the activation of protein kinase C and intracellular Ca^2+ release. A conventional organic solvent extraction method is widely used for PLC assays to isolate IP3 from the substrate PIP2. The conventional PLC-β2 assay, however is terminated by addition of acidified organic solvents and subsequent extraction and phase separation. […] Accordingly, a preferred method to test the compounds of the present invention, was developed utilizing a 96-well plate assay for PLC-β2 using immobilized radiolabeled substrate to quantitatively measure the reduction in the substrate level without a need for organic solvent extraction. The automated PLC-β2 assay described herein provides a convenient method for quantitative measurement of phospholipase C activities in a high throughput fashion. Ninety-six well Phospholipid FlashPlates were coated with 0.2 mL of 50 mM Tris/HCl (pH 7.4), 0.01% Ac-BSA and 50,000 cpm of […] (phosphatidylinositol-4,5-bisphosphate) at 4° C. for 72 h. The wells were aspirated and washed twice with PBS. The reactions were conducted directly in the wells in PLC reaction buffer containing 50 mM Tris/HCl (pH 7.2), 2.75 mM EDTA (pH 7.3), 80 mM KCl, 10 mM LiCl, 0.04% DOC and 2 mM CaCl2 in the absence or presence of the purified recombinant human PLC-β2 (prepared as described hereafter) or cytosolic human PLC-β2 from […]. Reduction of radioactivity was monitored by a Packard TopCount instrument (Packard Instrument Company, Conn., USA). […] The cells were grown in Grace's media supplemented with 10% (v/v) fetal bovine serum, 3.3 g/l yeastolate, 3.3 g/l lactalbumin hydrosylate, glutamine (6.4 mM final), 50 μg/ml gentamicin, and 50 μg/ml kanamycin. Suspension of Sf9 cells (1.0×10^6 cells/ml) were infected with 5 pfu/cell of recombinant baculovirus encoding PLC-β2 and incubated at 27° C. for 72 h. The cells were collected by centrifugation (500×g, 7 min, 4° C.) and disrupted by hypotonic lysis buffer containing 20 mM Tris/HCl, pH 7.4, 5 mM MgCl2, 2 mM EGTA, 200 μM PMSF, 200 μM benzamidine and 1 μM pepstatin A. The lysate was sonicated on ice and the nuclei and unbroken cells removed by centrifigation (500×g, 5 min, 4C.). The supernatant was recovered and clarified by centrifugation (34,000 rpm, 60 min, 4C.). The supernatant was used as a crude cytosolic fraction (Paterson, A., Boyer, J. L., Watts, V. J., Morris, A. J., Price, […]. (1995) Concentration of enzyme-dependent activation of PLC β1 and PLC β2 by Gα11 and βγ subunits. Cellular Signalling 7, 709-720). Crude cytosol prepared from Sf9 cells expressing PLC-β2 was purified initially by chromatography on a 10 ml column of Q-Sepharose FF, equilibrated in buffer A (25 mM HEPES, pH 7.2,2 mM DTT, 2 mM EDTA, 2 mM EGTA, 200 μM PMSF, 200 μM benzamidine, 1 μM pepstatin A containing 10 mM NaCl). The column was washed with 20 ml of equilibration buffer and eluted with a 200-ml gradient of 110-410 mM NaCl in buffer A. The fractions containing PLC activity were pooled and diluted with buffer A. The diluted enzyme was applied to a 4 ml column of heparin-SepharoseCL-6B equilibrated in buffer A and the column washed with 70 ml of buffer A. The column was eluted with 80 ml of gradient of 0-1.0 M NaCl in buffer A, the column eluate collected in 3 ml fractions. […]

Row | Structure (SMILES) | IC50
1 | COc1ccccc1N1CCN(c2ccc(C(N)=O)cc2NC(=O)Nc2ccccc2)CC1 [Cpd 1, 4-[4-(2-methoxyphenyl)-1-piperazinyl]-3-[[(phenylamino)carbonyl]amino]-benzamide] | 23.4 µM
2 | NC(=O)c1ccc(N2CCN(Cc3ccccc3)CC2)c(NC(=O)Nc2ccccc2)c1 [Cpd 2, 3-[[(phenylamino)carbonyl]amino]-4-[4-(phenylmethyl)-1-piperazinyl]-benzamide] | > 25 µM
3 | NC(=O)c1ccc(N2CCN(C(c3ccccc3)c3ccccc3)CC2)c(NC(=O)Nc2ccc([N+](=O)[O-])cc2)c1 [Cpd 5, 4-[4-(diphenylmethyl)-1-piperazinyl]-3-[[[(4-nitrophenyl)amino]carbonyl]amino]-benzamide] | 9.9 µM
4 | NC(=O)c1ccc(N2CCN(C(c3ccccc3)c3ccccc3)CC2)c(NC(=O)NCc2ccccc2)c1 [Cpd 6, 4-[4-(diphenylmethyl)-1-piperazinyl]-3-[[[(phenylmethyl)amino]carbonyl]amino]-benzamide] | 9 µM
5 | Cc1cc(C)cc(NC(=O)Nc2cc(C(N)=O)ccc2N2CCN(C(c3ccccc3)c3ccccc3)CC2)c1 [Cpd 7, 3-[[[(3,5-dimethylphenyl)amino]carbonyl]amino]-4-[4-(diphenylmethyl)-1-piperazinyl]-benzamide] | 5.3 µM
6 | NC(=O)c1ccc(N2CCN(C(c3ccccc3)c3ccccc3)CC2)c(NC(=O)NC2CCCCC2)c1 [Cpd 10, 3-[[(cyclohexylamino)carbonyl]amino]-4-[4-(diphenylmethyl)-1-piperazinyl]-benzamide] | 14 µM
7 | C[C@H](NC(=O)Nc1cc(C(N)=O)ccc1N1CCN(C(c2ccccc2)c2ccccc2)CC1)c1ccccc1 [Cpd 11, 4-[4-(diphenylmethyl)-1-piperazinyl]-3-[[[[(1S)-1-phenylethyl]amino]carbonyl]amino]-benzamide] | 8.4 µM
8 | CCCCNC(=O)Nc1cc(C(N)=O)ccc1N1CCN(C(c2ccccc2)c2ccccc2)CC1 [Cpd 12, 3-[[(butylamino)carbonyl]amino]-4-[4-(diphenylmethyl)-1-piperazinyl]-benzamide] | 14.5 µM
9 | CC(NC(=O)Nc1cc(C(N)=O)ccc1N1CCN(C(c2ccc(F)cc2)c2ccc(F)cc2)CC1)c1ccccc1 (stereo not drawn) [Cpd 16, 4-[4-[bis(4-fluorophenyl)methyl]-1-piperazinyl]-3-[[[(1-phenylethyl)amino]carbonyl]amino]-benzamide] | 6 µM

These reach a lower IC50. Values come first.

Row | IC50 | Structure (SMILES)
10 | 1.5 µM | NC(=O)c1ccc(N2CCN(C(c3ccc(F)cc3)c3ccc(F)cc3)CC2)c(NC(=O)Nc2ccccc2)c1 [Cpd 3, 4-[4-[bis(4-fluorophenyl)methyl]-1-piperazinyl]-3-[[(phenylamino)carbonyl]amino]-benzamide]
11 | 2.1 µM | NC(=O)c1ccc(N2CCN(C(c3ccc(F)cc3)c3ccc(F)cc3)CC2)c(NC(=O)Nc2ccccc2F)c1 [Cpd 4, 4-[4-[bis(4-fluorophenyl)methyl]-1-piperazinyl]-3-[[[(2-fluorophenyl)amino]carbonyl]amino]-benzamide]
12 | 1.2 µM | NC(=O)c1ccc(N2CCN(C(c3ccccc3)c3ccccc3)CC2)c(NC(=O)Nc2ccccc2)c1 [Cpd 8, 4-[4-(diphenylmethyl)-1-piperazinyl]-3-[[(phenylamino)carbonyl]amino]-benzamide]
13 | 1.3 µM | NC(=O)c1ccc(N2CCN(C(c3ccccc3)c3ccccc3)CC2)c(NC(=O)Nc2ccc(F)cc2)c1 [Cpd 13, 4-[4-(diphenylmethyl)-1-piperazinyl]-3-[[[(4-fluorophenyl)amino]carbonyl]amino]-benzamide]
14 | 3.1 µM | NC(=O)c1ccc(N2CCN(C(c3ccc(F)cc3)c3ccc(F)cc3)CC2)c(NC(=O)Nc2ccc3c(c2)OCO3)c1 [Cpd 14, 3-[[(1,3-benzodioxol-5-ylamino)carbonyl]amino]-4-[4-[bis(4-fluorophenyl)methyl]-1-piperazinyl]-benzamide]
15 | 4.8 µM | Cc1ccc(NC(=O)Nc2cc(C(N)=O)ccc2N2CCN(C(c3ccc(F)cc3)c3ccc(F)cc3)CC2)c(C)c1 [Cpd 15, 4-[4-[bis(4-fluorophenyl)methyl]-1-piperazinyl]-3-[[[(2,4-dimethylphenyl)amino]carbonyl]amino]-benzamide]
